Experiments:
[1] = tested on: YT; test: cells; type: functional, cell-based, Homo sapiens
Description: SANGER: Inhibition of human YT cell growth in a cell viability assay.

[2] = tested on: SK-MEL-30; test: cells; type: functional, cell-based, Homo sapiens;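 further: growth inhibition of SK-MEL-30 cells, determined with a cell viability assay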
Description: SANGER: Inhibition of human SK-MEL-30 cell growth in a cell viability assay.

[3] = tested on: A-431; test: cells; type: functional, cell-based, Homo sapiens;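 further: growth inhibition of A-431 cells, determined with a cell viability read-out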
Description: SANGER: Inhibition of human A431 cell growth in a cell viability assay.

[4] = tested on: ACHN; test: cells; type: functional, cell-based, Homo sapiens;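 further: cell viability read-out used to gauge how strongly growth of human ACHN cells is suppressed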
Description: SANGER: Inhibition of human ACHN cell growth in a cell viability assay.

[5] = tested on: C3A; test: cells; type: functional, cell-based, Homo sapiens;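 further: growth inhibition of C3A human cells, quantified with a cell viability readout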
Description: SANGER: Inhibition of human C3A cell growth in a cell viability assay.

[6] = tested on: A204; test: cells; type: functional, cell-based, Homo sapiens;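 further: growth inhibition of human A204 cells, read out with a cell viability assay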
Description: SANGER: Inhibition of human A204 cell growth in a cell viability assay.

[7] = tested on: JEG-3; test: cells; type: functional, cell-based, Homo sapiens;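 further: growth inhibition of human JEG-3 cells, read out with a cell viability assay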
Description: SANGER: Inhibition of human JEG-3 cell growth in a cell viability assay.

[8] = tested on: ASPC1; test: cells; type: functional, cell-based, Homo sapiens;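 further: growth inhibition of AsPC-1 cells, read out with a cell viability assay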
Description: SANGER: Inhibition of human AsPC-1 cell growth in a cell viability assay.

[9] = tested on: Daudi; test: cells; type: functional, cell-based, Homo sapiens;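 further: growth inhibition of Daudi cells, read out by a viability assay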
Description: SANGER: Inhibition of human Daudi cell growth in a cell viability assay.

[10] = tested on: T84; test: cells; type: functional, cell-based, Homo sapiens;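 further: growth inhibition measured with a cell viability readout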
Description: SANGER: Inhibition of human T84 cell growth in a cell viability assay.

[11] = tested on: Ca-Ski; test: cells; type: functional, cell-based, Homo sapiens;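 further: cell viability assay measuring inhibition of Ca-Ski cell growth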
Description: SANGER: Inhibition of human Ca-Ski cell growth in a cell viability assay.

[12] = tested on: ChaGo-K-1; test: cells; type: functional, cell-based, Homo sapiens;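 further: growth inhibition of ChaGo-K-1 cells, read out with a cell viability assay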
Description: SANGER: Inhibition of human ChaGo-K-1 cell growth in a cell viability assay.

[13] = tested on: NCI-H2141; test: cells; type: functional, cell-based, Homo sapiens;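 further: growth inhibition of human NCI-H2141 cells, read out with a cell viability assay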
Description: SANGER: Inhibition of human NCI-H2141 cell growth in a cell viability assay.

[14] = tested on: NCI-H1651; test: cells; type: functional, cell-based, Homo sapiens;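 further: Read-out is a cell viability assay, with IC50 expressing inhibition of NCI-H1651 cell growth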
Description: SANGER: Inhibition of human NCI-H1651 cell growth in a cell viability assay.

[15] = tested on: HCC1954; test: cells; type: functional, cell-based, Homo sapiens;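 further: growth inhibition of human HCC1954 cells, read out with a cell viability assay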
Description: SANGER: Inhibition of human HCC1954 cell growth in a cell viability assay.

[16] = tested on: BHT-101; test: cells; type: functional, cell-based, Homo sapiens
Description: SANGER: Inhibition of human BHT-101 cell growth in a cell viability assay.

[17] = tested on: PF-382; test: cells; type: functional, cell-based, Homo sapiens
Description: SANGER: Inhibition of human PF-382 cell growth in a cell viability assay.

[18] = tested on: HT1197; test: cells; type: functional, cell-based, Homo sapiens, HT-1197
Description: SANGER: Inhibition of human HT-1197 cell growth in a cell viability assay.

[19] = tested on: NCI-H1693; test: cells; type: functional, cell-based, Homo sapiens;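 further: growth inhibition of the human cell line, read out with a cell viability assay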
Description: SANGER: Inhibition of human NCI-H1693 cell growth in a cell viability assay.

[20] = tested on: SK-OV-3; test: cells; type: functional, cell-based, Homo sapiens;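 further: growth inhibition of SK-OV-3 human cells, read out with a cell viability assay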
Description: SANGER: Inhibition of human SK-OV-3 cell growth in a cell viability assay.

[21] = tested on: T47D; test: cells; type: functional, cell-based, Homo sapiens;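 further: growth inhibition of human T47D cells, measured with a cell viability assay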
Description: SANGER: Inhibition of human T47D cell growth in a cell viability assay.

[22] = tested on: NCI-H719; test: cells; type: functional, cell-based, Homo sapiens;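 further: growth inhibition of the cultured cell line, read out with a viability assay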
Description: SANGER: Inhibition of human NCI-H719 cell growth in a cell viability assay.

[23] = tested on: LoVo; test: cells; type: functional, cell-based, Homo sapiens;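 further: growth inhibition of human LoVo cells, read out with a cell viability assay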
Description: SANGER: Inhibition of human LoVo cell growth in a cell viability assay.

[24] = tested on: PC-14; test: cells; type: functional, cell-based, Homo sapiens;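 further: cell viability assay measuring inhibition of PC-14 cell growth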
Description: SANGER: Inhibition of human PC-14 cell growth in a cell viability assay.

[25] = tested on: BC1 cell line; test: SANGER: Inhibition of human BC-1 cell growth in a cell viability assay.; type: functional, cell-based
[26] = tested on: CHP-212; test: cells; type: functional, cell-based, Homo sapiens
Description: SANGER: Inhibition of human CHP-212 cell growth in a cell viability assay.

[27] = tested on: RPMI-2650; test: cells; type: functional, cell-based, Homo sapiens
Description: SANGER: Inhibition of human RPMI-2650 cell growth in a cell viability assay.

[28] = tested on: KYSE-70 cell line; test: cells; type: functional, cell-based, Homo sapiens;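 further: cell viability assay read-out, with IC50 expressing suppression of KYSE-70 cell growth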
Description: SANGER: Inhibition of human KYSE-70 cell growth in a cell viability assay.

[29] = tested on: ST486; test: SANGER: Inhibition of human ST486 cell growth in a cell viability assay.; type: functional, cell-based
[30] = tested on: RD; test: cells; type: functional, cell-based, Homo sapiens
Description: SANGER: Inhibition of human RD cell growth in a cell viability assay.

[31] = tested on: TUR; test: cells; type: functional, cell-based, Homo sapiens;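 further: growth inhibition of human TUR cells, read out with a cell viability assay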
Description: SANGER: Inhibition of human TUR cell growth in a cell viability assay.

[32] = tested on: KP-4; test: cells; type: functional, cell-based, Homo sapiens;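 further: human KP-4 cells, with growth inhibition read out through a cell viability assay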
Description: SANGER: Inhibition of human KP-4 cell growth in a cell viability assay.

[33] = tested on: ABC-1; test: cells; type: functional, cell-based, Homo sapiens;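 further: growth inhibition of human ABC-1 cells, read out by a cell viability assay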
Description: SANGER: Inhibition of human ABC-1 cell growth in a cell viability assay.

[34] = tested on: HCC38; test: cells; type: functional, cell-based, Homo sapiens;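 further: cell viability assay on the human HCC38 cell line, with IC50 marking the concentration that inhibits cell growth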
Description: SANGER: Inhibition of human HCC38 cell growth in a cell viability assay.

[35] = tested on: Ca9-22; test: cells; type: functional, cell-based, Homo sapiens;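 further: growth inhibition of Ca9-22 cells, read out with a cell viability assay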
Description: SANGER: Inhibition of human Ca9-22 cell growth in a cell viability assay.

[36] = tested on: 786-0; test: cells; type: functional, cell-based, Homo sapiens
Description: SANGER: Inhibition of human 786-0 cell growth in a cell viability assay.

[37] = tested on: IM-9; test: SANGER: Inhibition of human IM-9 cell growth in a cell viability assay.; type: functional, cell-based
[38] = tested on: KYSE-520 cell line; test: cells; type: functional, cell-based, Homo sapiens;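 further: growth inhibition of human KYSE-520 cells, read out with a viability assay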
Description: SANGER: Inhibition of human KYSE-520 cell growth in a cell viability assay.

[39] = tested on: HT-29; test: cells; type: functional, cell-based, Homo sapiens;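 further: growth inhibition of human HT-29 cells, read out by a cell viability assay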
Description: SANGER: Inhibition of human HT-29 cell growth in a cell viability assay.

[40] = tested on: SCC-3; test: cells; type: functional, cell-based, Homo sapiens;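 further: cell viability assay measuring inhibition of SCC-3 cell growth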
Description: SANGER: Inhibition of human SCC-3 cell growth in a cell viability assay.

[41] = tested on: HLE; test: cells; type: functional, cell-based, Homo sapiens;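 further: growth inhibition of human HLE cells, read out by a cell viability assay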
Description: SANGER: Inhibition of human HLE cell growth in a cell viability assay.

[42] = tested on: HGC-27; test: cells; type: functional, cell-based, Homo sapiens;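 further: growth inhibition of human HGC-27 cells, read out in a cell viability assay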
Description: SANGER: Inhibition of human HGC-27 cell growth in a cell viability assay.

[43] = tested on: MeWo; test: cells; type: functional, cell-based, Homo sapiens;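 further: growth inhibition of MeWo cells, determined by a cell viability readout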
Description: SANGER: Inhibition of human Mewo cell growth in a cell viability assay.

[44] = tested on: J82; test: cells; type: functional, cell-based, Homo sapiens;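 further: growth inhibition of J82 cells, read out with a cell viability assay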
Description: SANGER: Inhibition of human J82 cell growth in a cell viability assay.

[45] = tested on: NCI-H1417; test: cells; type: functional, cell-based, Homo sapiens;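 further: human NCI-H1417 cells, growth inhibition determined with a cell viability readout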
Description: SANGER: Inhibition of human NCI-H1417 cell growth in a cell viability assay.

[46] = tested on: NCI-H2228; test: cells; type: functional, cell-based, Homo sapiens;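 further: growth inhibition of human NCI-H2228 cells, read out by a cell viability assay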
Description: SANGER: Inhibition of human NCI-H2228 cell growth in a cell viability assay.

[47] = tested on: SW48; test: cells; type: functional, cell-based, Homo sapiens;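 further: growth inhibition of SW48 cells, read out with a cell viability assay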
Description: SANGER: Inhibition of human SW48 cell growth in a cell viability assay.

## N#Cc1c(O)c2c(-c3ccc(-c4ccccc4O)cc3)csc2[nH]c1=O
[1]; Homo sapiens, YT
  IC50: 46.7 nM
[2]; Homo sapiens, SK-MEL-30
  IC50: > 1020 nM
[3]; Homo sapiens, A-431
  IC50: 29.2 nM
[4]; Homo sapiens, ACHN
  IC50: > 1020 nM
[5]; Homo sapiens, C3A
  IC50: > 1020 nM
[6]; Homo sapiens, A204
  IC50: > 1020 nM
[7]; Homo sapiens, JEG-3
  IC50: > 1020 nM
[8]; Homo sapiens, ASPC1
  IC50: > 1020 nM
[9]; Homo sapiens, Daudi
  IC50: 49.8 nM
[10]; Homo sapiens, T84
  IC50: > 1020 nM
[11]; Homo sapiens, Ca-Ski
  IC50: > 1020 nM
[12]; Homo sapiens, ChaGo-K-1
  IC50: > 1020 nM
[13]; Homo sapiens, NCI-H2141
  IC50: 633 nM
[14]; Homo sapiens, NCI-H1651
  IC50: > 1020 nM
[15]; Homo sapiens, HCC1954
  IC50: > 1020 nM
[16]; Homo sapiens, BHT-101
  IC50: > 1020 nM
[17]; Homo sapiens, PF-382
  IC50: 85.9 nM
[18]; Homo sapiens, HT1197
  IC50: > 1020 nM
[19]; Homo sapiens, NCI-H1693
  IC50: > 1020 nM
[20]; Homo sapiens, SK-OV-3
  IC50: > 1020 nM
[21]; Homo sapiens, T47D
  IC50: > 1020 nM
[22]; Homo sapiens, NCI-H719
  IC50: > 1020 nM
[23]; Homo sapiens, LoVo
  IC50: > 1020 nM
[24]; Homo sapiens, PC-14
  IC50: > 1020 nM
[25]; Homo sapiens, BC1
  IC50: 69.7 nM
[26]; Homo sapiens, CHP-212
  IC50: > 1020 nM
[27]; Homo sapiens, RPMI-2650
  IC50: > 1020 nM
[28]; Homo sapiens, KYSE-70
  IC50: > 1020 nM
[29]; Homo sapiens, ST486
  IC50: 135 nM
[30]; Homo sapiens, RD
  IC50: > 1020 nM
[31]; Homo sapiens, TUR
  IC50: 345 nM
[32]; Homo sapiens, KP-4
  IC50: > 1020 nM
[33]; Homo sapiens, ABC-1
  IC50: > 1020 nM
[34]; Homo sapiens, HCC38
  IC50: > 1020 nM
[35]; Homo sapiens, Ca9-22
  IC50: > 1020 nM
[36]; Homo sapiens
  IC50: > 1020 nM
[37]; Homo sapiens, IM-9
  IC50: > 1020 nM
[38]; Homo sapiens, KYSE-520
  IC50: > 1020 nM
[39]; Homo sapiens, HT-29
  IC50: > 1020 nM
[40]; Homo sapiens, SCC-3
  IC50: > 1020 nM
[41]; Homo sapiens, HLE
  IC50: > 1020 nM
[42]; Homo sapiens, HGC-27
  IC50: > 1020 nM
[43]; Homo sapiens, MeWo
  IC50: > 1020 nM
[44]; Homo sapiens, J82
  IC50: > 1020 nM
[45]; Homo sapiens, NCI-H1417
  IC50: 439 nM
[46]; Homo sapiens, NCI-H2228
  IC50: > 1020 nM
[47]; Homo sapiens, SW48
  IC50: > 1020 nM

## COc1cccc2c1C(=O)c1c(O)c3c(c(O)c1C2=O)C[C@@](O)(C(=O)CO)C[C@@H]3O[C@H]1C[C@H](N)[C@H](O)[C@H](C)O1 [DOXORUBICIN]
[1]; Homo sapiens, YT
  IC50: > 1020 nM
[2]; Homo sapiens, SK-MEL-30
  IC50: 35.6 nM
[3]; Homo sapiens, A-431
  IC50: 20.9 nM
[4]; Homo sapiens, ACHN
  IC50: 49.3 nM
[5]; Homo sapiens, C3A
  IC50: 416 nM
[6]; Homo sapiens, A204
  IC50: 12.9 nM
[7]; Homo sapiens, JEG-3
  IC50: 95.1 nM
[8]; Homo sapiens, ASPC1
  IC50: 855 nM
[9]; Homo sapiens, Daudi
  IC50: 69 nM
[10]; Homo sapiens, T84
  IC50: 57.1 nM
[11]; Homo sapiens, Ca-Ski
  IC50: 44.8 nM
[12]; Homo sapiens, ChaGo-K-1
  IC50: 108 nM
[13]; Homo sapiens, NCI-H2141
  IC50: 574 nM
[14]; Homo sapiens, NCI-H1651
  IC50: 11.8 nM
[15]; Homo sapiens, HCC1954
  IC50: 541 nM
[16]; Homo sapiens, BHT-101
  IC50: 396 nM
[17]; Homo sapiens, PF-382
  IC50: 67.2 nM
[18]; Homo sapiens, HT1197
  IC50: 213 nM
[19]; Homo sapiens, NCI-H1693
  IC50: 290 nM
[20]; Homo sapiens, SK-OV-3
  IC50: 50.1 nM
[21]; Homo sapiens, T47D
  IC50: 470 nM
[22]; Homo sapiens, NCI-H719
  IC50: 39.7 nM
[23]; Homo sapiens, LoVo
  IC50: 81.8 nM
[24]; Homo sapiens, PC-14
  IC50: 236 nM
[25]; Homo sapiens, BC1
  IC50: 86.8 nM
[26]; Homo sapiens, CHP-212
  IC50: 35 nM
[27]; Homo sapiens, RPMI-2650
  IC50: 13.7 nM
[28]; Homo sapiens, KYSE-70
  IC50: 225 nM
[29]; Homo sapiens, ST486
  IC50: 15.5 nM
[30]; Homo sapiens, RD
  IC50: 180 nM
[31]; Homo sapiens, TUR
  IC50: 76.3 nM
[32]; Homo sapiens, KP-4
  IC50: 40.8 nM
[33]; Homo sapiens, ABC-1
  IC50: 83.4 nM
[34]; Homo sapiens, HCC38
  IC50: 42.5 nM
[35]; Homo sapiens, Ca9-22
  IC50: 50.1 nM
[36]; Homo sapiens
  IC50: 8.47 nM
[37]; Homo sapiens, IM-9
  IC50: 51.4 nM
[38]; Homo sapiens, KYSE-520
  IC50: 261 nM
[39]; Homo sapiens, HT-29
  IC50: 36.6 nM
[40]; Homo sapiens, SCC-3
  IC50: 67.3 nM
[41]; Homo sapiens, HLE
  IC50: 35.8 nM
[42]; Homo sapiens, HGC-27
  IC50: 13.6 nM
[43]; Homo sapiens, MeWo
  IC50: > 1020 nM
[44]; Homo sapiens, J82
  IC50: 21.3 nM
[45]; Homo sapiens, NCI-H1417
  IC50: 370 nM
[46]; Homo sapiens, NCI-H2228
  IC50: 13.5 nM
[47]; Homo sapiens, SW48
  IC50: 49.7 nM

## BLEOMYCIN
[1]; yt
  IC50: 1320 nM
[2]; sk-mel-30
  IC50: 377 nM
[3]; a-431
  IC50: 2110 nM
[4]; achn
  IC50: 375 nM
[5]; c3a
  IC50: 296 nM
[6]; a204
  IC50: 200 nM
[7]; jeg-3
  IC50: 8550 nM
[8]; aspc1
  IC50: 82500 nM
[9]; daudi
  IC50: 1670 nM
[10]; t84
  IC50: 13500 nM
[11]; ca-ski
  IC50: 798 nM
[12]; chago-k-1
  IC50: 16400 nM
[13]; nci-h2141
  IC50: 36100 nM
[14]; nci-h1651
  IC50: 505 nM
[15]; hcc1954
  IC50: 84200 nM
[16]; bht-101
  IC50: 7340 nM
[17]; pf-382
  IC50: 426 nM
[18]; ht-1197
  IC50: 2740 nM
[19]; nci-h1693
  IC50: 16600 nM
[20]; sk-ov-3
  IC50: 4880 nM
[21]; t47d
  IC50: 168000 nM
[22]; nci-h719
  IC50: 293000 nM
[23]; lovo
  IC50: 71.2 nM
[24]; pc-14
  IC50: 183 nM
[25]; bc1
  IC50: 3920 nM
[26]; chp-212
  IC50: 148 nM
[27]; rpmi-2650
  IC50: 633 nM
[28]; kyse-70
  IC50: 1380 nM
[29]; st486
  IC50: 6390 nM
[30]; rd
  IC50: 106000 nM
[31]; tur
  IC50: 18900 nM
[32]; kp-4
  IC50: 2170 nM
[33]; abc-1
  IC50: 19700 nM
[34]; hcc38
  IC50: 31.2 nM
[35]; ca9-22
  IC50: 746 nM
[36]
  IC50: 80.8 nM
[37]; im-9
  IC50: 4130 nM
[38]; kyse-520
  IC50: 6790 nM
[39]; ht-29
  IC50: 535 nM
[40]; scc-3
  IC50: 3210 nM
[41]; hle
  IC50: 4000 nM
[42]; hgc-27
  IC50: 2840 nM
[43]; mewo
  IC50: 148000 nM
[44]; j82
  IC50: 774 nM
[45]; nci-h1417
  IC50: 30400 nM
[46]; nci-h2228
  IC50: 955 nM
[47]; sw48
  IC50: 546 nM
